Laboratory results published in patent publication US9193755B1, “TFEB variants and uses thereof” (Fondazione Telethon, priority 2011, dated 2015).

Assays:
[1] = system: TFEB; assay: TFEB nuclear translocation in starved / re-stimulated HeLa cells (nuclear/cytosolic fractionation, immunofluorescence); format: cell-based, human; conditions: for TFEB nuclear translocation compared to starved media alone: EBSS media supplemented with the factor; for nuclear translocation of exogenously expressed TFEB: HeLa and HEK-293T cells transfected with TFEB-3xFLAG, treated overnight
Experimental: Cells were seeded at 50% of confluence in 6 well dishes and serum starved overnight (ON). Normal medium was added the following day either in presence of DMSO or kinase inhibitors. Subcellular fractionation was carried out as previously reported.

[2] = Dissolution of test peptides for in vitro kinase assay; format: physicochemical; conditions: 1 mM in 50 mM HEPES pH7
Experimental: TFEB-S-142: aa. o 117-166 of Seq Id No. 2: […] and TFEB-A-142: Seq Id No. 4, corresponding to aa. of 117-166 of Seq Id No. 2 where Ser 142 was substituted with Ala (bold): […] were synthesized by […] corp. The test peptides TFEB-A-142 and TFEB-S-142 were made up to 1 mM in 50 mM HEPES pH7. […] The kinase assay was performed at room temperature for 40 minutes at 200 μM ATP and 100 μM of each peptide, using Millipore's standard radiometric assay. All protein kinases were used at their standard KinaseProfiler™ assay concentration. Following incubation, all assays were stopped by the addition of acid and an aliquot spotted onto P30 and Filtermat A to separate products. All tests were carried out in triplicate, and the usual substrate for each protein kinase included as a control. In Vivo Gene Delivery

[3] = system: mTORC1; assay: mTORC1 activity by level of p-P70S6K (immunoblotting); format: cell-based, human; conditions: HeLa cells treated overnight
[4] = system: TFEB S142; assay: TFEB S142 phosphorylation with p-S142 phosphospecific antibody; format: cell-based, human; conditions: starved cells supplemented with normal media
From the text: The mouse anti-TFEB monoclonal antibody was purchased from My Biosource catalogue No. MBS120432. To generate anti-pS142 specific antibodies, rabbits were immunized with the following peptide coupled to KLH: AGNSAPN{pSer}[…]. Following the fourth immunization, rabbits were sacrificed and the serum was collected. Non-phosphospecific antibodies were depleted from the serum by circulation through a column containing the non-phosphorylated antigene. The phosphospecific antibodies were subsequently purified using a column containing the phosphorylated peptide.
Cells were lysed with M-PER buffer (Thermo) containing protease and phosphatase inhibitors (Sigma); nuclear/cytosolic fractions were isolated as above described. Proteins were separated by SDS-PAGE (Invitrogen; reduced NuPAGE 4-12% Bis-tris Gel, MES SDS buffer). If needed, the gel was stained using 20 ml Imperial Protein Stain (Thermo Fisher) at room temperature for 1 h and de-stained with water. Immunoblotting analysis was performed by transferring the protein onto a nitrocellulose membrane with an I-Blot (Invitrogen). […]

[5] = system: primary hepatocytes; conditions: for upregulation / transcriptional response of TFEB target genes: hepatocytes from TFEB conditional knockout mice; for levels of P-ERK / mTOR as measured by the level of p-S6K: primary hepatocytes
Experimental: Liver was dissociated in a petri dish, cell pellet was washed in HBSS and plated at density of 5×10^5 cells/35 mm dish and cultured in William's medium E supplemented with 10% FBS, 2 mM glutamine, 0.1 mM Insulin, 0.1 mM Dexamethasone and pen/strep. The next day, cells were treated as described in the text.
Total RNA was extracted from tissues using TRIzol (Invitrogen) or from cells using RNAesy column (Qiagen). Reverse transcription was performed using TaqMan reverse transcription reagents (Applied Biosystems). Lysosomal and autophagic gene specific primers were previously reported^2. Autophagy gene primers and mouse primers were purchased from SABiosciences. Fold change calculations were calculated using SABiosciences' online data analysis website (http colon double forward slash www dot sabiosciences dot com forward slash per forward slash arrayanalysis dot php) which uses the DDCt method. […] Next, the DDCt value is calculated between the “control” group and the “experimental” group. Lastly, the fold change is calculated using 2^(−DDCt). Biological replicates were grouped to allow calculating the fold change values. Unpaired T-Test was used to calculate statistical significance. Asterisks in the graph indicate that the P-value was <0.05.

[6] = system: long-lived proteins; assay: Degradation of long-lived proteins; format: cell-based; conditions: autophagy inhibitor added
Experimental: Sub-confluent cells were incubated with L-U^14C-serine for 20 h and chased for 1 h with cold media to degrade short-lived proteins. Subsequently cells were incubated with either normal media or starvation media (eventually in the presence of 3-MA) for 4 h. The rate of long-lived protein degradation was calculated from the ratio of soluble radioactivity in the media to that insoluble in the acid-precipitable cell pellet.

[7] = target: mTOR (Homo sapiens, UniProt P42345); conditions: recent data (41, 47, 48); cited from earlier work

## insulin: growth factor supplemented to EBSS media
[1]
  TFEB nuclear translocation compared to starved media alone: significant inhibition

## PPPAASPGVRAGHVLSSSAGNSAPNAPMAMLHIGSNPERELDDVIDNIMR [TFEB-A-142]
[2]
  dissolution: no issue with dissolution

## PPPAASPGVRAGHVLSSSAGNSAPNSPMAMLHIGSNPERELDDVIDNIMR (listed as Homo sapiens) [TFEB-S-142, peptide aa]
[2]
  dissolution: no issue with dissolution

## CC/C=C\C=C/C(=O)N/C=C/C[C@H]1C[C@@H](O)[C@@H](C)C/C=C/Cc2cccc(O)c2C(=O)O1 [Salicylihalamide A]
[1]
  nuclear translocation of exogenously expressed TFEB: induced nuclear translocation
[3]
  mTORC1 activity as measured by level of p-P70S6K: inhibited

## CCC(=O)N1CCN(c2ccc(-n3c(=O)ccc4cnc5ccc(-c6cnc7ccccc7c6)cc5c43)cc2C(F)(F)F)CC1 [Torin 1]
[4]
  nutrient-induced S142 phosphorylation: clearly blunted
[1]; starved cells stimulated with amino-acid rich medium, Torin 1 250 nM, Rapamycin 2.5 μM
  TFEB subcellular localization: massive TFEB nuclear accumulation
[5]
  upregulation / transcriptional response of TFEB target genes: significantly reduced
  levels of P-ERK: unaffected
  mTOR as measured by the level of p-S6K: inhibited mTOR

## Cn1cnc(N)c2ncnc1-2 [3-methyl adenine, reference compound]
[6]
  TFEB-induced enhancement of long-lived protein degradation: abolished

## N#CC(=C(/N)Sc1ccccc1N)/C(C#N)=C(\N)Sc1ccccc1N [U0126]
[1]
  TFEB molecular weight shift induced by nutrients: only a partial TFEB molecular weight shift
  TFEB nuclear localization: resulted in TFEB nuclear localization, at level similar to starvation

## LIF: cytokine supplemented to EBSS media
[1]
  TFEB nuclear translocation compared to starved media alone: Almost no effect

## EGF: growth factor supplemented to EBSS media (NSDSECPLSHDGYCLHDGVCMYIEALDKYACNCVVGYIGERCQYRDLKWWELR; UniProt P01133 971-1023, looked up)
[1]
  TFEB nuclear translocation compared to starved media alone: significant inhibition

## Nc1ccc(-c2ccc3ncc4ccc(=O)n(-c5cccc(C(F)(F)F)c5)c4c3c2)cn1 [Torin 2]
[7]
  mTOR inhibition: completely inhibiting mTOR activity

## CCN(CC)CCCC(C)Nc1ccnc2cc(Cl)ccc12 (stereo not drawn) [chloroquine]
[1]
  nuclear translocation of exogenously expressed TFEB: induced nuclear translocation
[5]
  upregulation / transcriptional response of TFEB target genes: significantly blunted
  levels of P-ERK: unaffected
  mTOR as measured by the level of p-S6K: inhibited mTOR
[5]; hepatocytes from control mice
  expression of TFEB target genes: upregulated
